From patent publication US20230242530A1, “8-(AZETIDIN-1-YL)-[1,2,4]TRIAZOLO[1,5-A]PYRIDINYL COMPOUNDS, COMPOSITIONS AND METHODS OF USE THEREOF” (Genentech, Inc., priority 2016, published 2023) come the findings set out here.

The term Ki denotes the equilibrium dissociation constant of an inhibitor or competing ligand from its target. The EC50 is the concentration giving half of the maximal effect. Read a low EC50 as higher potency in that assay.

Test [1] concerns the target T1, isolated recombinant JAK1 kinase domain (Homo sapiens, UniProt P23458).
T1 construct: isolated recombinant JAK1 and JAK2 kinase domain
The test can be described thus: JAK enzyme assay, JAK1 kinase domain (Caliper LabChip). It counts as biochemical. The conditions noted are these: 1.5 nM JAK1, ATP 25 μM, Morrison tight binding model. Put shortly: (§1)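 Recombinant kinase domains phosphorylated a 5-carboxyfluorescein-labelled JAK3-derived peptide for 30 min at 22 °C, and the reaction was stopped with EDTA (50 mM final). Product fraction was measured by Caliper LabChip mobility shift. Ki came from Morrison tight-binding fits corrected for ATP competition (Ki=Ki,app/(1+[ATP]/Km,app)).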

The target in test [2] is T2, isolated recombinant JAK2 kinase domain (Homo sapiens, UniProt O60674).
T2 construct: isolated recombinant JAK1 and JAK2 kinase domain
T2 sequence (O60674 849-1124 limits assumed): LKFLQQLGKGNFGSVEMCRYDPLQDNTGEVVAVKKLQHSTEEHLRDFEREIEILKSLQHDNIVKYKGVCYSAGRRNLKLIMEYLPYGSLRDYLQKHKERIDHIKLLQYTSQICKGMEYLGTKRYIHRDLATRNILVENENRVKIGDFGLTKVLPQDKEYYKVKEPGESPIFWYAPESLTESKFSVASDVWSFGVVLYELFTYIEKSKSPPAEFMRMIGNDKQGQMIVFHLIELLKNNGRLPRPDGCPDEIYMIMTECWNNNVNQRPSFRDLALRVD
The test can be described thus: JAK enzyme assay, JAK2 kinase domain (Caliper LabChip). It counts as biochemical. The conditions noted are these: 0.2 nM JAK2, ATP 25 μM, Morrison tight binding model. The essentials:
as §1

For test [3], the system named is JAK1-dependent STAT6 phosphorylation downstream of IL-13 stimulation in BEAS-2B cells. The test can be described thus: JAK1 pathway assay in cell lines: IL-13 p-STAT6 BEAS-2B. It counts as cell-based. To be noted: BEAS-2B human bronchial epithelial cells, 1 hr compound, IL-13 15 min, MSD readout. The essentials:
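BEAS-2B cells plated a day ahead in complete growth medium; compounds added 1 hr at 37 °C (0.2% DMSO final), then IL-13 at lot-specific EC90 for 15 min at 37 °C. Phospho-STAT6 in lysates measured by MSD; EC50 is 50% inhibition relative to DMSO control.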

The structures appear in SMILES notation.

T1 sequence (P23458 875-1153 limits assumed): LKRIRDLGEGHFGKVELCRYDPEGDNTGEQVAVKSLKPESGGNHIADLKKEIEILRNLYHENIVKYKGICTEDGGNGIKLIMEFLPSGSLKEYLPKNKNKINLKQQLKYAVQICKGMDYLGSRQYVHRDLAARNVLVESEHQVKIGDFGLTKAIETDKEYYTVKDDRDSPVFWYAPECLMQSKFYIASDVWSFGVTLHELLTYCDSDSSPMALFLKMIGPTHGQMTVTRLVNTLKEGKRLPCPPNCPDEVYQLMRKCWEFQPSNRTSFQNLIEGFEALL

Take `CCc1cnn(C2(CC#N)CN(c3cccn4nc(Nc5ccc(C(=O)N6CCN(C)CC6)c(C)c5)nc34)C2)c1` [Example 92, 2-[3-(4-ethylpyrazol-1-yl)-1-[2-[3-methyl-4-(4-methylpiperazine-1-carbonyl)anilino]-[1,2,4]triazolo[1,5-a]pyridin-8-yl]azetidin-3-yl]acetonitrile]: the Ki was 0.4 nM in test [1] and 1.7 nM in test [2]. Besides, in test [3], it took 19 nM to reach a half-maximal effect (EC50).

Turning to `N#CCC1(c2cccc(Cl)c2)CN(c2cccn3nc(Nc4cnn(CC(=O)N5CCC(NC6COC6)CC5)c4)nc23)C1` [Example 93, 2-[3-(3-chlorophenyl)-1-[2-[[1-[2-[4-(oxetan-3-ylamino)-1-piperidyl]-2-oxo-ethyl]pyrazol-4-yl]amino]-[1,2,4]triazolo[1,5-a]pyridin-8-yl]azetidin-3-yl]acetonitrile], the figures for the Ki in test [1] and in test [2] were 0.4 nM and 0.7 nM, respectively. The compound also displayed an EC50 in test [3] of 79 nM.

Take `COCCN1CCN(C(=O)Cn2cc(Nc3nc4c(N5CC(CC#N)(n6cc(C(F)(F)F)cn6)C5)cccn4n3)cn2)CC1` [Example 94]: the results for the inhibitory constant (Ki) in test [1] and in test [2] were 0.3 nM and 1 nM, respectively. The compound also showed an EC50 in test [3] of 54 nM.

For `CC(=O)N1CCN(CC2CCN(C(=O)Cn3cc(Nc4nc5c(N6CC(CC#N)(c7cccc(Cl)c7)C6)cccn5n4)cn3)CC2)CC1` [Example 95, 2-[1-[2-[[1-[2-[4-[(4-acetylpiperazin-1-yl)methyl]-1-piperidyl]-2-oxo-ethyl]pyrazol-4-yl]amino]-[1,2,4]triazolo[1,5-a]pyridin-8-yl]-3-(3-chlorophenyl)azetidin-3-yl]acetonitrile], the Ki amounted to 0.4 nM in test [1] and 1.3 nM in test [2]. The compound further gave a concentration for a half-maximal effect (EC50) in test [3] of 41 nM.

Consider `N#CCC1(n2cc(C(F)(F)F)cn2)CN(c2cccn3nc(Nc4cnn(CC(=O)N5CCC(N6CCOCC6)CC5)c4)nc23)C1` [Example 96, 2-[1-[2-[[1-[2-(4-morpholino-1-piperidyl)-2-oxo-ethyl]pyrazol-4-yl]amino]-[1,2,4]triazolo[1,5-a]pyridin-8-yl]-3-[4-(trifluoromethyl)pyrazol-1-yl]azetidin-3-yl]acetonitrile], for which the figures for the Ki in test [1] and in test [2] were 0.3 nM and 0.8 nM, respectively. Further, the EC50 in test [3] was found to be 28 nM.

Take `N#CCC1(n2cc(C(F)(F)F)cn2)CN(c2cccn3nc(Nc4cnn(CC(=O)N5CCN(C6COC6)CC5)c4)nc23)C1` [Example 97, 2-[1-[2-[[1-[2-[4-(oxetan-3-yl)piperazin-1-yl]-2-oxo-ethyl]pyrazol-4-yl]amino]-[1,2,4]triazolo[1,5-a]pyridin-8-yl]-3-[4-(trifluoromethyl)pyrazol-1-yl]azetidin-3-yl]acetonitrile]: the Ki in test [1] came to 0.5 nM; in test [2], 0.8 nM. The same compound came in with an EC50 in test [3] of 51 nM.

As for `N#CCC1(n2cc(C(F)(F)F)cn2)CN(c2cccn3nc(Nc4cnn(CC(=O)N5CCN(C6CCOCC6)CC5)c4)nc23)C1` [Example 98, 2-[1-[2-[[1-[2-oxo-2-(4-tetrahydropyran-4-ylpiperazin-1-yl)ethyl]pyrazol-4-yl]amino]-[1,2,4]triazolo[1,5-a]pyridin-8-yl]-3-[4-(trifluoromethyl)pyrazol-1-yl]azetidin-3-yl]acetonitrile], the Ki worked out at 0.5 nM in test [1] and 0.8 nM in test [2]. A half-maximal response in test [3] (EC50) required 32 nM.

Consider `N#CCC1(c2cccc(Cl)c2)CN(c2cccn3nc(Nc4cnn(CC(=O)N5CCC(NCC6(C#N)CC6)CC5)c4)nc23)C1` [Example 99, 1-[[[1-[2-[4-[[8-[3-(3-chlorophenyl)-3-(cyanomethyl)azetidin-1-yl]-[1,2,4]triazolo[1,5-a]pyridin-2-yl]amino]pyrazol-1-yl]acetyl]-4-piperidyl]amino]methyl]cycl opropanecarbonitrile], for which the Ki in test [1] was determined as 2 nM; in test [2] it was 4 nM. This compound registered a concentration for a half-maximal effect (EC50) in test [3] of 71 nM.

Consider `CN(CC1(C#N)CC1)C1CCN(C(=O)Cn2cc(Nc3nc4c(N5CC(CC#N)(c6cccc(Cl)c6)C5)cccn4n3)cn2)CC1` [Example 100, 1-[[[1-[2-[4-[[8-[3-(3-chlorophenyl)-3-(cyanomethyl)azetidin-1-yl]-[1,2,4]triazolo[1,5-a]pyridin-2-yl]amino]pyrazol-1-yl]acetyl]-4-piperidyl]-methyl-amino]methyl]cyclopropane carbonitrile], for which the Ki came out at 0.3 nM in test [1] and 1.5 nM in test [2]. The compound also returned an EC50 in test [3] of 26 nM.

As to `CN1CCN(C(=O)Cn2cc(Nc3nc4c(N5CC(CC#N)(c6ccccc6)C5)cccn4n3)cn2)CC1` [Example 101], the Ki in test [1] was found to be 0.3 nM; in test [2] it was 0.2 nM. For the same compound, the EC50 in test [3] was determined as 16 nM.

As to `CN1CCN(C(=O)Cn2cc(Nc3nc4c(N5CC(CC#N)(Cc6cccc(Cl)c6)C5)cccn4n3)cn2)CC1` [Example 102, 2-[3-[(3-chlorophenyl)methyl]-1-[2-[[1-[2-(4-methylpiperazin-1-yl)-2-oxo-ethyl]pyrazol-4-yl]amino]-[1,2,4]triazolo[1,5-a]pyridin-8-yl]azetidin-3-yl]acetonitrile], the Ki was 1.2 nM in test [1] and 5.1 nM in test [2]. Besides, in test [3], it took 290 nM to reach a half-maximal effect (EC50).

Take `N#CCC1(n2cc(C(F)(F)F)cn2)CN(c2cccn3nc(Nc4ccc(C(=O)N5CCN(C6COC6)CC5)cc4)nc23)C1` [Example 103, 2-[1-[2-[4-[4-(oxetan-3-yl)piperazine-1-carbonyl]anilino]-[1,2,4]triazolo[1,5-a]pyridin-8-yl]-3-[4-(trifluoromethyl)pyrazol-1-yl]azetidin-3-yl]acetonitrile]: the Ki is 0.3 nM in test [1] and 1.7 nM in test [2]. This compound came in with an EC50 in test [3] of 33 nM.

Consider `CN1CCN(C(=O)Cn2cc(Nc3nc4c(N5CC(CC#N)(n6cc(NCC(F)(F)F)cn6)C5)cccn4n3)cn2)CC1` [Example 104], for which the inhibition constant (Ki) in test [1] amounted to 0.3 nM; in test [2], 0.1 nM. Moreover, the EC50 in test [3] was found to be 22 nM.

Regarding `CC(C)Sc1cnn(C2(CC#N)CN(c3cccn4nc(Nc5cnn(CC(=O)N6CCN(C)CC6)c5)nc34)C2)c1` [Example 105, 2-[3-(4-isopropylsulfanylpyrazol-1-yl)-1-[2-[[1-[2-(4-methylpiperazin-1-yl)-2-oxo-ethyl]pyrazol-4-yl]amino]-[1,2,4]triazolo[1,5-a]pyridin-8-yl]azetidin-3-yl]acetonitrile], the Ki was determined as 0.7 nM in test [1] and 1.6 nM in test [2]. Also, in test [3], a half-maximal response (EC50) required 42 nM.

On to `CCc1cnn(C2(CC#N)CN(c3cccn4nc(Nc5ccc(C(=O)N6CCN(C)CC6)c(OC)c5)nc34)C2)c1` [Example 106, 2-[3-(4-ethylpyrazol-1-yl)-1-[2-[3-methoxy-4-(4-methylpiperazine-1-carbonyl)anilino]-[1,2,4]triazolo[1,5-a]pyridin-8-yl]azetidin-3-yl]acetonitrile], for which the Ki amounted to 0.5 nM in test [1] and 1.3 nM in test [2]. The compound further came in with an EC50 in test [3] of 40 nM.

On to `CC(C)(C#N)CCN1CCN(C(=O)Cn2cc(Nc3nc4c(N5CC(CC#N)(n6cc(C(F)(F)F)cn6)C5)cccn4n3)cn2)CC1` [Example 107, 4-[4-[2-[4-[[8-[3-(cyanomethyl)-3-[4-(trifluoromethyl)pyrazol-1-yl]azetidin-1-yl]-[1,2,4]triazolo[1,5-a]pyridin-2-yl]amino]pyrazol-1-yl]acetyl]piperazin-1-yl]-2,2-dimethyl-butanenitrile], for which the Ki came out at 0.4 nM in test [1] and 1.1 nM in test [2]. This compound returned an EC50 in test [3] of 44 nM.
